# “Also recorded” adds a separate entry of the source.
# Tests used:
# [1] = Hematological profile of L1210-inoculated mice
# Source text: C57B mice were inoculated with L1210 lymphoblastic leukemia cells at an inoculum that causes leukemia in 100% of animals.
# [2] = tested on: vitelline capillaries; assay: Chick embryo vitelline capillary regression assay; assay type: in vivo
# Procedure: Using the chick embryo vitelline capillaries assay, compounds were tested for their ability to induce capillary regression. Each compound was applied in 0.1 ml of 15% Ficol 400 and PBS onto the embryo, and vascular regression was assessed after 60 minutes.
# The 3-day chick embryo consists of an embryonic disc from which numerous vessels emerge and return, forming a "FIG. 8"-shaped structure--the embryo in the center with vascular loops extending outward over both poles. […] Following a lag period of around 15 minutes, the constriction of continuity between capillary and secondary vessels, generally on the "venous" side, was observed. Continued pulsatile blood flow progressed, resulting in a "swelling" of the blind tube, followed by a pinching off of the remaining connection and formation of an enclosed vascular sac resembling a "blood island." This process progressed until only the largest vessels remained intact.
# [3] = tested on: B16 melanoma; assay: Suppression of growth of B16 melanoma in C57B mice; assay type: in vivo, mouse; details: subcutaneous; FIG. 6
# Procedure: The growth of B16 melanoma in C57B mice is dependent upon neovascularization.
# Using the growth of B16 melanoma cells in C57B mice, a recognized model for the evaluation of inhibitors of angiogenesis on the growth of cancers, the effects of subcutaneous, intraperitoneal and oral administration of squalamine were evaluated.
# [4] = tested on: Xenopus tadpole, stage 59-60; assay: Tadpole assay; assay type: in vivo, Xenopus laevis; details: 10 μg/ml; for pharmacological response in tadpole (words): stage 59-60
# Source text: For example, substances that destroy all of the animal's epithelium, both adult and embryonic, could be regarded as toxic.
# The volume of liquid is sufficient for the animal to swim freely and drink from the solution. […] If the volume of liquid is not sufficient to permit oral intake, the effects that are observed would result from absorption through the surface epithelium.
# In another embodiment of this assay, a solution of a compound in water can be injected directly into the abdomen of the animal using standard techniques.
# After an amount of time, typically about 60 minutes, the occlusion of blood flow through capillaries in the tadpole's tail are observed under an inverted microscope at a magnification of roughly 100×.
# In the assay, each of the steroids was dissolved in 100 ml of distilled water at a concentration of 10 μg/ml. Stage 59-60 Xenopus tadpoles were introduced and evaluated by light microscopy and gross observation 1 hour later.
# [5] = tested on: NHE; assay: Comparison of compound 319 with squalamine
# Source text: Moreover, other aminosterols have shown anti-angiogenic activity. Compounds were subjected to a various assays, including the chick embryo capillary regression assay, the tadpole assay, the assay for inhibition of endothelial cord formation, and the assay for direct inhibition of NHE, as described above, to determine their utilities. As evident from the above data, correlation among the results from the chick, tadpole and in vitro inhibition of endothelial cell cord formation assays is excellent.
# Through the application of these assays, compound 319 emerged as an attractive alternative to squalamine. […] Further properties of compound 319 are discussed below.
# [6] = tested on: human melanoma; assay: Effect on growth of human melanoma (method of Baker et al.); assay type: cell-based; details: FIG. 17A
# [7] = Effect on growth and weight gain of C57B mice; assay type: in vivo, mouse
# Procedure: Animals were dosed QTD (i.p.) starting on Day 1. […] Animals receiving 5 mg/kg QTD experienced about a 50% reduction in growth, compared to untreated controls, while animals receiving 1 mg/kg QTD were affected by about 10%. […] They appeared very much like hypophysectamized animals might appear.
# [8] = Effect on fasting blood glucose in mice; assay type: in vivo, mouse; details: i.v.
# Procedure: To study the effect of steroid administrator or the NHE responsible for secretion of insulin, several of the aminosterols from shark liver were administered to fasting mice. Male CD-1 mice were assigned to one of four treatment groups. Whole blood glucose was tested using glucometer (Lifescan Glucometer II and One Touch test strips). Statistical analysis was via one-way analysis of variance (ANOVA) followed by subsequent Bonferonni's t-test.
# [9] = target: T1, rabbit NHE3 (Oryctolagus cuniculus, UniProt P26432); assay type: cell-based; details: 10 μg/ml, acid preloaded; FIG. 10
# T1 construct: BCECF internal pH recovery
# T1 sequence (P26432 30-832): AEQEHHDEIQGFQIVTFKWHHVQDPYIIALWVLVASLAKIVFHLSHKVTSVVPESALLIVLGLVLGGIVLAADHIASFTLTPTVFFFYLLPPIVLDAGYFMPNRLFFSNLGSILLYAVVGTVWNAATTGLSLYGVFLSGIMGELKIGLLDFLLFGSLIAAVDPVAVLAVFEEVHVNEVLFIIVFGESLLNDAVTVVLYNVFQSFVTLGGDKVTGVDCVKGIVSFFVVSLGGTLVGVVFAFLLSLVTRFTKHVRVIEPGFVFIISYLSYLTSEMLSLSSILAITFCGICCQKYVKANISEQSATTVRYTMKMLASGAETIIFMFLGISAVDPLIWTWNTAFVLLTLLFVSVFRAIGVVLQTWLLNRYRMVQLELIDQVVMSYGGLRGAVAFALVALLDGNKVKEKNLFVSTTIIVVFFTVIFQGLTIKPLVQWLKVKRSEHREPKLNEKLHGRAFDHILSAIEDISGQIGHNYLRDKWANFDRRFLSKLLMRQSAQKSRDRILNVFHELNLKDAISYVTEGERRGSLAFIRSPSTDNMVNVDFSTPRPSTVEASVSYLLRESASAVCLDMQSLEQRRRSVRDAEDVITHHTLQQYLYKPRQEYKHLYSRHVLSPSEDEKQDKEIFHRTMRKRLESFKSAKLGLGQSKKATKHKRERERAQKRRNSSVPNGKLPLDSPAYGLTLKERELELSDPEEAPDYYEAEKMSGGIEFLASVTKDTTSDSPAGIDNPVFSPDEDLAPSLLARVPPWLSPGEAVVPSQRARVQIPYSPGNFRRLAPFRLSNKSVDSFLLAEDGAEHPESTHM
# [10] = tested on: heart of a juvenile Xenopus laevis frog; assay: Persistence of beating of isolated frog heart (ischemia); details: 10 μg/ml, adrenaline 50 μg/ml, room temperature; about one hour without compound
# Procedure: To determine if compound 1436 has such utility, the following experiment was performed. The heart of a juvenile Xenopus laevis frog was dissected from the living animal. The heart was placed into a Petri dish containing Krebs-Ringer buffer with adrenaline 50 μg/ml, and examined with the naked eye. At room temperature, the heart continued beating in a coordinated fashion (atrial beat followed by ventricular beat) for about one hour. In the presence of 10 μg/ml of compound 1436, spontaneous beating persisted up to 24 hours.
# [11] = tested on: PHA-stimulated human lymphocytes; assay: Inhibition of mitogen (PHA)-stimulated growth of human T-cells; assay type: cell-based
# Source text: Results are tabulated below.
# [12] = Effect on arterial resistance in the rat after i.v. administration; assay type: in vivo
# Procedure: A 200-g rat was catheterized in the right carotid artery, and the compound was introduced over a ten-second period to a total dosage of 5 mg/kg. Within 30 seconds, the mean arterial pressure had fallen from about 100 mm Hg to about 70 mm Hg, with a marked reduction in pulse pressure from about 40 mm to about 10 mm. […] If cardiac output was basically unaffected, reduction in blood pressure would have resulted principally from a reduction in system resistance.
# At that time, 40 μg of noradrenaline was introduced.
# [13] = tested on: Human coronary artery smooth muscle cells; assay: Growth inhibition in vitro (Table 7); assay type: cell-based; details: 10 μg/ml
# Source text: (§1) As set forth in Table 7 below, all malignant tumors evaluated in tissue culture, endothelial cells and vascular smooth muscle cells were sensitive to inhibition. Thus, compound 1436 has application in the control of growth factor dependent proliferation of many types of tissue.
# [14] = tested on: Murine L1210 leukemia; assay: Growth inhibition in vitro (Table 7); assay type: cell-based; details: 10 μg/ml
# Source text: as §1
# [15] = tested on: Human melanoma WM 1617; assay: Growth inhibition in vitro (Table 7); assay type: cell-based; details: 10 μg/ml
# Source text: as §1
# [16] = tested on: Human colon carcinoma SW948; assay: Growth inhibition in vitro (Table 7); assay type: cell-based; details: 10 μg/ml
# Source text: as §1
# [17] = tested on: Lewis lung carcinoma; assay: Growth inhibition in vitro (Table 7); assay type: cell-based; details: 10 μg/ml
# Source text: as §1
# [18] = tested on: bovine pulmonary endothelial cells; assay: Growth inhibition in vitro (Table 7); assay type: cell-based; details: 10 μg/ml
# Source text: as §1
# [19] = tested on: Human colon carcinoma HT29; assay: Growth inhibition in vitro (Table 7); assay type: cell-based; details: 10 μg/ml
# Source text: as §1
# [20] = tested on: human umbilical venous endothelial cells; assay: Growth inhibition in vitro (Table 7); assay type: cell-based; details: 10 μg/ml
# Source text: as §1
# [21] = tested on: Murine B16 melanoma; assay: Growth inhibition in vitro (Table 7); assay type: cell-based; details: 10 μg/ml
# Source text: as §1
# [22] = tested on: Human microvascular endothelial cells; assay: Growth inhibition in vitro (Table 7); assay type: cell-based; details: 10 μg/ml
# Source text: as §1
# [23] = tested on: L1210 lymphoblastic leukemia; assay: Survival of mice bearing L1210 leukemia
# [24] = tested on: Human ovarian carcinoma SKOV3; assay: Growth inhibition in vitro (Table 7); assay type: cell-based; details: 10 μg/ml
# Procedure: as §1
# Using the assay described above, the anticancer effects of compound 1437 against several cancer lines was assessed.
# [25] = tested on: human coronary artery smooth muscle; assay: Proliferation of human coronary artery smooth muscle in vitro; assay type: cell-based
# Source text: Aminosterols of the invention may also have utility in inhibiting the growth factor mediated proliferation of smooth muscle within the artery. Following coronary angioplasty, reocclusion commonly occurs, secondary to reparative proliferation of the vascular smooth muscle within the wall of the surgically manipulated blood vessel. This process generally takes place over the course of 7-10 days. To evaluate whether an agent could prevent the growth factor mediated proliferation of smooth muscle within the artery, compound 1436 was evaluated in vitro for its effect on the proliferation of human coronary artery smooth muscle. Results for compound 1436 are shown in FIG. 13, and those for squalamine are shown in FIG. 14, with FIG. 15 being a composite logarithmic plot.
# [26] = tested on: B16 melanoma; assay: Synergistic inhibition of tumor growth, B16 melanoma model; assay type: in vivo, mouse
# Procedure: Based on the idea that tumor growth involves both the clonal expansion of a malignant cell along with the development of a supporting vascular supply, a combination of compound 1436 with squalamine was tested to determine whether it would achieve a synergistic effect on solid tumor growth. This concept was evaluated in the B16 melanoma model.
# Animals were implanted with B16 melanoma followed by treatment with compound 1436 or 1256 administered in a combined schedule or separately. […] Thus, a combination of these two compounds achieves a therapeutic benefit in tumors dependent on neovascularization that may prevent metastatic spread.
# [27] = Chemical stability; assay type: physicochemical
smiles,measurement,setting,value
N.N.[Cl][Pt][Cl] [Cisplatin],hematological profile,[1],profound anemia by day 28
C[C@H](CCC(=O)O)[C@H]1CC[C@H]2[C@@H]3CC[C@H]4C[C@@H](NCCCNCCCCN)CC[C@]4(C)[C@H]3CC[C@]12C [Compound 319],activity on vitelline capillaries,[2],especially active
same,control of B16 melanoma,[3],control of B16 in C57B mice to an extent almost comparable to squalamine
same,pharmacological response in tadpole (words),[4],common vascular occlusive effect
same,potency as an NHE inhibitor compared with squalamine,[5],superior to squalamine
CC(C)CCC[C@@H](C)[C@H]1CC[C@H]2[C@@H]3CC[C@H]4C[C@@H](NCCCNCCCCNCCCN)CC[C@]4(C)[C@H]3CC[C@]12C [Compound 353],time course of effect on growth of melanoma,[6],"most pronounced over 48 hours, with less of an effect noted within the first 12 hours of incubation"
same,activity on vitelline capillaries,[2],no effect on the chick embryo capillary bed
same,pharmacological response in tadpole (words),[4],effects like those produced by compound 1436
CC(C)[C@@H](CC[C@@H](C)[C@H]1CC[C@H]2[C@@H]3[C@H](O)C[C@H]4C[C@@H](NCCCNCCCCNCCCN)CC[C@]4(C)[C@H]3CC[C@]12C)OS(=O)(=O)O [Compound 1436],reduction in growth,"[7]; 5 mg/kg QTD i.p., compared to untreated controls",~50%
same,reduction in growth,[7]; 10 mg/kg QTD i.p.,almost completely inhibited
same,apparent health of treated animals,[7]; i.p.,"all were active, normally proportioned, not-cachectic, and in excellent apparent clinical health"
same,blood glucose effect,[8],caused hyperglycemia in mice
same,inhibition of rabbit NHE3,[9],found to inhibit rabbit NHE3
same,activity on vitelline capillaries,[2],causes vitelline capillary regression with about the same potency as squalamine
same,persistence of spontaneous beating,[10],up to 24 hours
same,inhibition of blast transformation,[11],inhibited blast transformation most potently
same,reversibility,[12]; 40 μg noradrenaline at 30 minutes,readily reversible
same,pulse pressure after dose,"[12]; 5 mg/kg i.v., within 30 seconds, from about 40 mm",about 10 mm
same,mean arterial pressure after dose,"[12]; 5 mg/kg i.v., within 30 seconds, from about 100 mm Hg",about 70 mm Hg
same,persistence of pressure effect,[12]; followed for 30 minutes,without significant change
same,inhibition in vitro,[13],INHIBITED
same,inhibition in vitro,[14],INHIBITED
same,inhibition in vitro,[15],INHIBITED
same,inhibition in vitro,[16],INHIBITED
same,inhibition in vitro,[17],INHIBITED
same,inhibition in vitro,[18],INHIBITED
same,inhibition in vitro,[19],INHIBITED
same,inhibition in vitro,[20],INHIBITED
same,inhibition in vitro,[21],INHIBITED
same,inhibition in vitro,[22],INHIBITED
same,survival,"[23]; highest dose, 10 mg/kg every 3 days i.p., FIG. 11",significant prolongation of life
same,toxicity in leukemic mice,"[23]; mouse, in vivo",without unfavorable toxicity
same,tissues or functions not affected in tadpole,[4],"No effects are observed on epithelial cell integrity, vascular flow, erythrocyte volume, tissue integrity, muscle fiber striation, or GI tract activity"
same,pharmacological response in tadpole (words),[4],"Gradual reduction in overall activity. Heart beat remained strong, suggesting nervous system depression. Melanocytes over head and tail began to swell, first exhibiting visibly distinct nuclei, followed by rupture into fragments"
same,pharmacological response in tadpole (words),[4]; listed as compound 1436,"common vascular occlusive effect; also recorded: dramatic disruption of melanocytes over its head, trunk, and tail, along with depression of its nervous system"
same,inhibition in vitro,[24],INHIBITED
same,suppression of growth in vitro,[25]; FIG. 15,suppress in vitro the growth of human coronary artery smooth muscle
same,viability at quiescent concentration,[25]; about 11 μg/ml,without loss of viability
same,effect compared with combination,[26]; compound 1436 alone in a tolerable schedule,Neither administration of squalamine at 15 mg/kg/day nor compound 1436 alone in a tolerable schedule could achieve this effect
same,impact on tumor volume,"[26]; compound 1436 alone, 10 mg/kg/every 3 days, FIG. 12",no significant impact on tumor volume
CC(CCC(=O)C(C)(C)OS(=O)(=O)O)[C@H]1CCC2C3C(CC[C@@]21C)[C@@]1(C)CC[C@H](NCCCNCCCCN)C[C@@H]1C[C@H]3O (some centres unmarked) [FX1A],stability in water,[27],undergo conversion to another molecule (FX 1B) rapidly in water
